The values that follow are results of earlier work, collected in patent US4746505A, “Technetium radiodiagnostic fatty acids derived from bisamide bisthiol ligands” (President and Fellows of Harvard College, priority 1985, dated 1988).

The conditions of data set [1]: mice.
For data set [2] the following is noted: at carrier-added (CA) and no-carrier-added (NCA) concentrations.

Consider “^99m Tc-oxo[N,N'-ethylene-bis(2-mercapto)-[2'-(11-carboxyundecyl)]thio-acetamido]-technetate (+5) [^99m TcO(Undec)ema]”, for which, in data set [1] (at 5 min post-injection), the kidney activity result was “relatively high kidney activity”. The blood levels in data set [1] (over the first 30 min) is recorded as 6-8 %/g.
“oxo[N,N'-ethylenebis(2-mercapto-acetamido)]technetate (+5) [[TcO(ema)]^-]”: the stability in vivo entry (at carrier-added (CA) and no-carrier-added (NCA) concentrations) is recorded as “stable”. In addition, the renal excretion result (in vivo) is “rapid renal excretion”. Besides, the stability in vitro entry in data set [2] is “stable”.
